Laboratory results: paper PMC9022229, “Induction of Paraptosis by Cyclometalated Iridium Complex-Peptide Hybrids and CGP37157 via a Mitochondrial Ca^2+ Overload Triggered by Membrane Fusion between Mitochondria and the Endoplasmic Reticulum” (Biochemistry, 2022)
Residues, ends and D or L forms follow the SMILES beside them. *: point of attachment. X1 = O=C(COc1ccc(-c2ccccn2)cc1)NCCCCCCCCN*

Tests used:
[1] = system: dynamin-related protein 1 (DRP1); assay: Western blot analysis of DRP1 in Jurkat cells; assay type: cell-based
Procedure: In a 1.5 mL Eppendorf tube, Jurkat cells (1.0 × 10^6 cells) were incubated in the presence of 4 ([…]), CGP37157 (100 μM for 0–24 h or 0–100 μM for 12 h), and celastrol (0–10 μM for 24 h or 1 μM for 0–24 h) at 37 °C under 5% CO2. After the cells had been washed twice with PBS, the proteins were extracted by using RIPA buffer (Nacalai Tesque) and quantified using a Pierce BCA Protein Assay Kit (Thermo Scientific). Proteins (7.5 μg/well) for MFNs and DRP1 and proteins (5.0 μg/well) for GAPDH were used for sodium dodecyl sulfate–polyacrylamide gel electrophoresis (SDS–PAGE) (7.5% for MFNs and DRP1 and 10% for GAPDH) (Bio-Rad). After SDS–PAGE, the proteins were transferred to a polyvinylidene fluoride membrane (Merck Millipore) by using a semi dry blotter (Bio-Rad). The membrane was blocked with Blocking One solution (Nacalai Tesque) for 30 min at room temperature. After being blocked, the membrane was washed three times with 1× TBST and treated with primary antibodies overnight (at a dilution of 1/1000 for MFNs and DRP1 or 1/2000 for GAPDH) in a signal enhancer HIKARI-solution A (Nacalai Tesque). The membrane was washed three times with 1× TBST and treated with the anti-mouse or anti-rabbit IgG HRP-conjugated secondary antibody (at a dilution of 1/4000 for MFNs and DRP1 or 1/10000 for GAPDH) in 1× TBST for 60 min at room temperature. The protein signal was spotted with a Chemi-Lumi One Ultra solution (Nacalai Tesque) using the ChemiDoc MP system (Bio-Rad).

Jurkat cells [2] = assay: Mitochondria-ER membrane fusion, co-staining with MitoTracker Green and ER-Tracker Red; assay type: cell-based
Procedure: To verify this hypothesis, mitochondria and the ER were stained with both MitoTracker Green and ER-Tracker Red in the presence of 4, CGP37157, and celastrol (Figure 8). Jurkat cells were stained with MitoTracker Green (0.5 μM) and ER-Tracker Red (1 μM) and then treated with 4 (5 μM) for 10–30 min (time-dependent microscopic images are presented in Figure S5). […] With regard to CGP37157 and celastrol, Jurkat cells were stained with MitoTracker Green (0.5 μM) and ER-Tracker Red (1 μM) and then treated with CGP37157 (100 μM) and celastrol (1 μM) for 1–24 h (Figure 8 and Figure S5).
In a 1.5 mL Eppendorf tube, Jurkat cells (2.0 × 10^5 cells) were stained with MitoTracker Green (0.5 μM) for 1 h at 37 °C under 5% CO2 and then ER-Tracker Red (1 μM) for 1 h at 37 °C under 5% CO2 in 10% FBS/RPMI 1640 medium (100 μL). After being washed with PBS, the cells were treated with 4 (5 μM) in 10% FBS/RPMI 1640 medium (100 μL) for 0–30 min at 37 °C under 5% CO2. For CGP37157 and celastrol, Jurkat cells were treated with CGP37157 (100 μM) or celastrol (1 μM) in 10% FBS/RPMI 1640 medium (100 μL) for 0–24 h, after which the cells were stained with MitoTracker Green (0.5 μM) for 1 h at 37 °C under 5% CO2 and then ER-Tracker Red (1 μM) for 1 h at 37 °C under 5% CO2 in PBS. The cells were washed with PBS and observed by confocal microscopy (Fluoview, FV-1000, Olympus) using a Greiner CELLview dish (35 mm × 10 mm). Excitation at 473 nm and emission from 485 to 545 nm were used for MitoTracker Green. Excitation at 559 nm and emission from 570 to 620 nm were used for ER-Tracker Red. The exposure time was 20 μs/pixel.

Jurkat cells [3] = assay: Mitochondrial membrane potential (ΔΨm) by DilC1(5) confocal microscopy; assay type: cell-based
Procedure: The mitochondrial membrane potential (ΔΨm) was measured by means of DilC1(5) (1,1′,3,3,3′,3′-hexamethylindodicarbocyanine iodide), the emission intensity of which responds to ΔΨm.[95] Jurkat cells were treated with CGP37157 (100 μM) for 1–12 h, stained with DilC1(5) (5 μM) for 30 min, and observed via confocal microscopy. […] The decrease in ΔΨm with 4 was also observed by confocal microscopy (Figure 6B).
In a 1.5 mL Eppendorf tube, Jurkat cells (2.0 × 10^5 cells) were stained with DilC1(5) (500 nM, 100 μL) in 10% FBS/RPMI 1640 medium for 30 min at 37 °C under 5% CO2, followed by the treatment with 4 (5 μM, 100 μL) in the medium for 0–60 min at 37 °C under 5% CO2. For CGP37157, Jurkat cells (2.0 × 10^5 cells) were treated with CGP37157 (100 μM, 100 μL) in 10% FBS/RPMI 1640 medium for 0–12 h at 37 °C under 5% CO2, followed by the treatment with DilC1(5) (500 nM, 100 μL) in PBS. The cells were washed with PBS and observed by confocal microscopy (Fluoview, FV-1000, Olympus) using a Greiner CELLview dish (35 mm × 10 mm). Excitation at 405 nm and emission from 470 to 520 nm were used for 4. Excitation at 635 nm and emission from 650 to 750 nm were used for DilC1(5). The exposure time was 20 μs/pixel.

HeLa S3 cells = assay: MTT assay of HeLa S3 cells; assay type: cell-based, human; conditions: 24 h, 10% FBS/MEM, 37 °C, 5% CO2
Procedure: (§1) HeLa S3 and A549 cells (2.0 × 10^4 cells/well) were seeded on a 96-well plate (BD Falcon) in cell culture medium and incubated overnight at 37 °C under 5% CO2. Jurkat (2.0 × 10^4 cells/well), HeLa S3, and A549 cells were treated with 4 (0–25 μM) and CGP37157 (0–100 μM) for 1, 3, 6, 12, and 24 h at 37 °C under 5% CO2, after which a MTT solution in PBS (0.5%, 10 μL) was added to each well.
(§2) Figure S3. MTT assay of HeLa S3 cells (plain curves with filled circles) and A549 cells (dashed curves with filled squares) treated with CGP37157 (0–100 µM) in 10% FBS/MEM (HeLa S3 cells) and 10% FBS/DMEM (A549 cells) for 24 h at 37 °C under 5% CO 2.
(§3) Figure S4. MTT assay of Jurkat cells treated with inhibitors of programmed cell death; Z-VAD-fmk (an apoptosis inhibitor), necrostatin-1 (Nec-1: a necroptosis inhibitor), and 3-methyl adenine (3-MA, an autophagy inhibitor) in the presence of CGP37157 (100 µM, 12 h). Values are shown as the mean ± SD for three independent experiments. ** P < 0.01.
(§4) (also on this page, place not known: Cell viability (% control) CO2. 50 Cell viability (% control) 0300 00030 of)

A549 cells = assay: MTT assay of A549 cells; assay type: cell-based, human; conditions: 24 h, 10% FBS/DMEM, 37 °C, 5% CO2
Procedure: as §1, §2, §3, §4

IMR90 cells = system: IMR90 cells; design: method as in PMID 25875312, PMID 28032992, doi:10.1002/ejic.201700846, PMID 30154833, PMID 30177492; conditions: Chart 1, normal cell line, previously reported; read-out: EC50 against IMR90 cells; cited from earlier work
Jurkat cells [4] = system: Jurkat cells; design: method as in PMID 25875312, PMID 28032992, doi:10.1002/ejic.201700846, PMID 30154833, PMID 30177492; conditions: Chart 1, previously reported; read-out: EC50 against Jurkat cells; cited from earlier work

## O=C1CSC(c2ccccc2Cl)c2cc(Cl)ccc2N1 (centres unmarked) [CGP37157]
[1]; CGP37157 100 μM, 1–6 h
  Expression level of DRP1 (Figure 11B): somewhat upregulated
[1]; Figure S8B, CGP37157 10 µM, 12 h
  DRP1 band intensity relative to absence of compound: 1.6
[1]; Figure S8B, CGP37157 20 µM, 12 h
  DRP1 band intensity relative to absence of compound: 1.7
[1]; Figure S8B, CGP37157 50 µM, 12 h
  DRP1 band intensity relative to absence of compound: 1.3
[1]; Figure S8B, CGP37157 80 µM, 12 h
  DRP1 band intensity relative to absence of compound: 1.4
[1]; Figure S8B, CGP37157 100 µM, 12 h
  DRP1 band intensity relative to absence of compound: 0.89
Jurkat cells [2]; CGP37157 100 μM, 6 h
  Overlap of MitoTracker Green and ER-Tracker Red emission (mitochondria-ER membrane fusion): extensively overlapped
Jurkat cells [3]; CGP37157 100 μM, 6 h
  Emission of DilC1(5) (ΔΨm): quenched
HeLa S3 cells
  EC50: 45 µM
A549 cells
  EC50: 81 µM

## NCCCC[C@H](NC(=O)[C@H](CCCCN)NC(=O)[C@@H](N)CCCCN)C(=O)NCC(=O)NCC(=O)NCCCCCCCCNC(=O)COc1ccc(-c2ccccn2)cc1 [compound 4] (H-KKKGG-X1)
[1]; 4 at 5 μM, 30 min to 1 h
  Expression level of DRP1 (Figure 11A): somewhat upregulated
[1]; Figure S8A, 4 at 1 µM, 1 h per legend
  DRP1 band intensity relative to absence of compound: 2.0
[1]; Figure S8A, 4 at 2.5 µM, 1 h per legend
  DRP1 band intensity relative to absence of compound: 2.5
[1]; Figure S8A, 4 at 5 µM, 1 h per legend
  DRP1 band intensity relative to absence of compound: 2.6
[1]; Figure S8A, 4 at 10 µM, 1 h per legend
  DRP1 band intensity relative to absence of compound: 2.6
[1]; Figure S8A, 4 at 20 µM, 1 h per legend
  DRP1 band intensity relative to absence of compound: 1.0
Jurkat cells [2]; 4 at 5 μM, 10 min
  Overlap of MitoTracker Green and ER-Tracker Red emission (mitochondria-ER membrane fusion): extensively overlapped
Jurkat cells [3]; 4 at 5 μM, 20 min after treatment
  Emission of DilC1(5) (ΔΨm): decrease in emission intensity
IMR90 cells
  EC50: > 25 µM
Jurkat cells [4]
  EC50: 1.5 µM
